Laboratory results published in PubChem BioAssay (NCI).
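Exposure lasted 48 hours, with cells grown in 96-well plates and compounds tested at five concentrations. The concentration for 50% growth inhibition is given as GI50. TGI denotes the concentration required for complete inhibition of growth.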

Experiments:
Test in all cases: DTP human tumour cell line panel, 48 h
SW-620 colon = system: SW-620 colon
IGROV1 ovarian = system: IGROV1 ovarian
HT29 colon = system: HT29 colon
NCI-H522 lung = system: NCI-H522 lung
NCI-H226 lung = system: NCI-H226 lung
OVCAR-4 ovarian = system: OVCAR-4 ovarian
UACC-62 melanoma = system: UACC-62 melanoma
NCI/ADR-RES ovarian = system: NCI/ADR-RES ovarian
CCRF-CEM leukemia = system: CCRF-CEM leukemia
CAKI-1 renal = system: CAKI-1 renal

For `CC1SC(c2ccc(F)cc2)N(NC(=O)C(O)c2ccccc2)C1=O` (stereo not given), the GI50 (SW-620 colon) was > 100 µM, the TGI (SW-620 colon) was > 100 µM and the GI50 (IGROV1 ovarian) was > 100 µM. For the same molecule, the TGI (IGROV1 ovarian) was > 100 µM, the GI50 (HT29 colon) was > 100 µM and the TGI (HT29 colon) was > 100 µM. For the same molecule, the GI50 (NCI-H522 lung) was > 100 µM, the TGI (NCI-H522 lung) was > 100 µM and the GI50 (NCI-H226 lung) was > 100 µM. The TGI (NCI-H226 lung) was > 100 µM, the GI50 (OVCAR-4 ovarian) was > 100 µM and the TGI (OVCAR-4 ovarian) was > 100 µM. For the same molecule, the GI50 (UACC-62 melanoma) was > 100 µM, the TGI (UACC-62 melanoma) was > 100 µM and the GI50 (NCI/ADR-RES ovarian) was > 100 µM. For the same molecule, the TGI (NCI/ADR-RES ovarian) was > 100 µM, the GI50 (CCRF-CEM leukemia) was > 100 µM and the TGI (CCRF-CEM leukemia) was > 100 µM. For the same molecule, the GI50 (CAKI-1 renal) was > 100 µM and the TGI (CAKI-1 renal) was > 100 µM.

With `CC1(C)OC1COc1c2occc2cc2ccc(=O)oc12` (stereo not given) the TGI (SW-620 colon) was > 100 µM, the TGI (IGROV1 ovarian) was > 100 µM and the TGI (HT29 colon) was > 100 µM. For the same molecule, the TGI (NCI-H522 lung) was > 100 µM, the TGI (NCI-H226 lung) was > 100 µM and the TGI (OVCAR-4 ovarian) was > 100 µM. The TGI (UACC-62 melanoma) was > 100 µM, the TGI (NCI/ADR-RES ovarian) was > 100 µM and the TGI (CCRF-CEM leukemia) was > 100 µM. For the same molecule, the TGI (CAKI-1 renal) was > 100 µM.

With `Nc1n[nH]c2cccc(C#Cc3cccc(C(=O)Nc4ccc(CN5CCOCC5)c(C(F)(F)F)c4)c3)c12` the GI50 (SW-620 colon) was 2.89 µM, the TGI (SW-620 colon) was 12.7 µM and the GI50 (IGROV1 ovarian) was 2.35 µM. It also gave a TGI (IGROV1 ovarian) of 7.01 µM, a GI50 (HT29 colon) of 1.89 µM and a TGI (HT29 colon) of 12.2 µM. The GI50 (NCI-H522 lung) was 2.52 µM, the TGI (NCI-H522 lung) was 9.28 µM and the GI50 (NCI-H226 lung) was 1.14 µM. For the same molecule, the TGI (NCI-H226 lung) was 7.81 µM, the GI50 (OVCAR-4 ovarian) was 2.15 µM and the TGI (OVCAR-4 ovarian) was 6.88 µM. For the same molecule, the GI50 (UACC-62 melanoma) was 1.12 µM, the TGI (UACC-62 melanoma) was 3.52 µM and the GI50 (NCI/ADR-RES ovarian) was 3.07 µM. For the same molecule, the TGI (NCI/ADR-RES ovarian) was > 100 µM, the GI50 (CCRF-CEM leukemia) was 2.26 µM and the TGI (CCRF-CEM leukemia) was 11.5 µM. The GI50 (CAKI-1 renal) was 3.2 µM and the TGI (CAKI-1 renal) was 11.4 µM.

For `O=C(O)c1nc2nc(Cl)c(Cl)nc2[nH]1`, the TGI (SW-620 colon) was > 100 µM, the TGI (IGROV1 ovarian) was > 100 µM and the TGI (HT29 colon) was > 100 µM. The TGI (NCI-H522 lung) was > 100 µM, the TGI (NCI-H226 lung) was > 100 µM and the TGI (OVCAR-4 ovarian) was > 100 µM. The TGI (UACC-62 melanoma) was > 100 µM, the TGI (NCI/ADR-RES ovarian) was > 100 µM and the TGI (CCRF-CEM leukemia) was > 100 µM. The TGI (CAKI-1 renal) was > 100 µM.

For `O=C(/C=C/c1ccc(O)cc1)c1ccc(O)cc1`, the TGI (SW-620 colon) was 57.9 µM, the TGI (IGROV1 ovarian) was > 100 µM and the TGI (HT29 colon) was 48.5 µM. The TGI (NCI-H522 lung) was 9.22 µM, the TGI (NCI-H226 lung) was 27.2 µM and the TGI (OVCAR-4 ovarian) was > 100 µM. For the same molecule, the TGI (UACC-62 melanoma) was > 66.8 µM, the TGI (NCI/ADR-RES ovarian) was > 63.1 µM and the TGI (CCRF-CEM leukemia) was > 85 µM. The TGI (CAKI-1 renal) was 37.9 µM.

`CN(C)CC1CC/C(=C\c2ccc(O)cc2)C1=O` (stereo not given) showed a TGI (SW-620 colon) of 5.33 µM, a TGI (IGROV1 ovarian) of 24.1 µM and a TGI (HT29 colon) of 11.5 µM. The TGI (NCI-H522 lung) was 3.17 µM, the TGI (NCI-H226 lung) was 25.6 µM and the TGI (OVCAR-4 ovarian) was 18.5 µM. The TGI (UACC-62 melanoma) was 15.5 µM, the TGI (NCI/ADR-RES ovarian) was 21.5 µM and the TGI (CCRF-CEM leukemia) was 3.53 µM. It also gave a TGI (CAKI-1 renal) of 3.24 µM.

`Nc1ccccc1SC(CC(=O)c1ccccc1)c1cccc([N+](=O)[O-])c1` (stereo not given) gave a GI50 (SW-620 colon) of 3.03 µM, a TGI (SW-620 colon) of 12.2 µM and a GI50 (IGROV1 ovarian) of 13.1 µM. The TGI (IGROV1 ovarian) was 28.1 µM, the GI50 (HT29 colon) was 5.79 µM and the TGI (HT29 colon) was 23 µM. The GI50 (NCI-H522 lung) was 15 µM, the TGI (NCI-H522 lung) was 29.5 µM and the GI50 (NCI-H226 lung) was 17.1 µM. It also gave a TGI (NCI-H226 lung) of 35.2 µM, a GI50 (OVCAR-4 ovarian) of 14.6 µM and a TGI (OVCAR-4 ovarian) of 27.8 µM. It also gave a GI50 (UACC-62 melanoma) of 13.8 µM, a TGI (UACC-62 melanoma) of 26.9 µM and a GI50 (NCI/ADR-RES ovarian) of 20.4 µM. It also gave a TGI (NCI/ADR-RES ovarian) of 42.8 µM, a GI50 (CCRF-CEM leukemia) of 16 µM and a TGI (CCRF-CEM leukemia) of 50.8 µM. For the same molecule, the GI50 (CAKI-1 renal) was 16.4 µM and the TGI (CAKI-1 renal) was 30.4 µM.

`C=C1C(=O)O[C@H]2[C@H]1CC/C(COC(=O)NCc1ccc(Cn3c(=O)sn(-c4ccc(OC)cc4)c3=O)cc1)=C\CC[C@@]1(C)O[C@@H]21` was tested, and the GI50 (SW-620 colon) was 1.77 µM, the TGI (SW-620 colon) was 3.61 µM and the GI50 (IGROV1 ovarian) was 2.85 µM. The TGI (IGROV1 ovarian) was 8.04 µM, the GI50 (HT29 colon) was 1.96 µM and the TGI (HT29 colon) was 3.51 µM. The GI50 (NCI-H522 lung) was 1.67 µM, the TGI (NCI-H522 lung) was 3.1 µM and the GI50 (NCI-H226 lung) was 12.9 µM. The TGI (NCI-H226 lung) was 30.7 µM, the GI50 (OVCAR-4 ovarian) was 1.64 µM and the TGI (OVCAR-4 ovarian) was 3.98 µM. For the same molecule, the GI50 (UACC-62 melanoma) was 1.86 µM, the TGI (UACC-62 melanoma) was 3.84 µM and the GI50 (NCI/ADR-RES ovarian) was 12.3 µM. For the same molecule, the TGI (NCI/ADR-RES ovarian) was 28.8 µM, the GI50 (CCRF-CEM leukemia) was 0.561 µM and the TGI (CCRF-CEM leukemia) was 3.05 µM. It also gave a GI50 (CAKI-1 renal) of 2.34 µM and a TGI (CAKI-1 renal) of 6.83 µM.
